Target: T1, MCR-1 (Homo sapiens, UniProt Q01726)
T1 construct: expressed in transfected cells; host or cells: HEK 293
Experiment: Melanocortin receptor binding assay, competition with 125I-HP 467, HEK 293 cells expressing hMCR-1
Conditions: for % Disp. MC-1 10 μM: displacement of 125I-HP 467 at 10 μM isoquinoline compound; for % Disp. of 125I-HP 467 (first of duplicate) / % Disp. of 125I-HP 467 (second of duplicate): 10 μM isoquinoline compound; for % Disp. of 125I-HP 467 (first of duplicate): HEK 293 cells expressing MCR-1, duplicate 1; for % Disp. of 125I-HP 467 (second of duplicate): HEK 293 cells expressing MCR-1, duplicate 2
Procedure, shortened: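 Intact-cell competition binding, 2.5 hr at 37 °C, in PBS/10% calf serum/1 mM CaCl2; hMCR-4 cells at 4×10^3 per tube, hMCR-1 cells at 2×10^4 per tube. Filtration on BSA/CaCl2-soaked GF/B, cold 50 mM Tris pH 7.4 washes, scintillation count.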

T1 sequence (Q01726 whole entry): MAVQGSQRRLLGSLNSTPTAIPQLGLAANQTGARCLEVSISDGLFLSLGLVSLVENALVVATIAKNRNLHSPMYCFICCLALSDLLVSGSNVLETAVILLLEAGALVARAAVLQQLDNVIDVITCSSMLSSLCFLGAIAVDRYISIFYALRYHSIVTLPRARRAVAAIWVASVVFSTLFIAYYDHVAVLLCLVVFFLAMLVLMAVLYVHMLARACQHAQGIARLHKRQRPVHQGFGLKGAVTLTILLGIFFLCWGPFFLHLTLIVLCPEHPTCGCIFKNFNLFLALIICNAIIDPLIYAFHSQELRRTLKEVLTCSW

% Disp. MC-1 10 μM (first of duplicate) | % Disp. MC-1 10 μM (second of duplicate) | % Disp. of 125I-HP 467 (first of duplicate) | % Disp. of 125I-HP 467 (second of duplicate) | Compound
24.7% | 33.5% | – | – | CNC(CN)CN1Cc2ccccc2C(CNC2CCCCC2)C1c1ccncc1 (centres unmarked) [TRG 2405-164]
37.3% | 34.6% | – | – | CNC(CN)CN1Cc2ccccc2C(CNC2CCCCC2)C1c1ccnc2ccccc12 (centres unmarked) [TRG 2405-165]
44.9% | 24.1% | – | – | CNC(CN)CN1Cc2ccccc2C(CNC2CCCCC2)C1c1ccc(C)s1 (centres unmarked) [TRG 2405-168]
62.2% | 51.5% | – | – | CNC(CN)CN1Cc2ccccc2C(CNC2CCCCC2)C1c1ccc(C)o1 (centres unmarked) [TRG 2405-169]
63.1% | 49.7% | – | – | CNC(CN)CN1Cc2ccccc2C(CNC2CCCCC2)C1c1cccc(C)n1 (centres unmarked) [TRG 2405-171]
– | – | 59.4% | 43.9% | CNC(CN)CN1Cc2ccccc2C(CNC2CCCCC2)C1c1ccc2cccc(O)c2n1 (centres unmarked) [TRG 2405-172]
– | – | 67% | 59.3% | CCn1c2ccccc2c2cc(C3C(CNC4CCCCC4)c4ccccc4CN3CC(CN)NC)ccc21 (centres unmarked) [TRG 2405-173]
– | – | 68.5% | 68.8% | CNC(CN)CN1Cc2ccccc2C(CNC2CCCCC2)C1c1ccc[nH]1 (centres unmarked) [TRG 2405-175]
– | – | 39% | 30.7% | CNC(CN)CN1Cc2ccccc2C(CNC2CCCCC2)C1c1ccc(S(C)(=O)=O)cc1 (centres unmarked) [TRG 2405-177]
– | – | 25% | 22.1% | CNC(CN)CN1Cc2ccccc2C(CNC2CCCCC2)C1c1ccc(OC)c(S(=O)(=O)O)c1 (centres unmarked) [TRG 2405-178]
– | – | 61.1% | 56.8% | CNC(CN)CN1Cc2ccccc2C(CNC2CCCCC2)C1c1ccc(Br)o1 (centres unmarked) [TRG 2405-179]
– | – | 72% | 64.6% | CNC(CN)CN1Cc2ccccc2C(CNC2CCCCC2)C1c1nccs1 (centres unmarked) [TRG 2405-180]
– | – | 57.3% | 64.4% | CNC(CN)CCCCN1Cc2ccccc2C(CNC2CCCCC2)C1c1ccccc1 (centres unmarked) [TRG 2405-181]
– | – | 55.8% | 46% | CNC(CN)CCCCN1Cc2ccccc2C(CNC2CCCCC2)C1c1cccn1C (centres unmarked) [TRG 2405-184]
– | – | 68.1% | 60.4% | CN[C@H](CN)CCCCN1Cc2ccccc2C(CNC2CCCCC2)C1c1cccc2ccccc12 (some centres unmarked) [TRG 2405-185]
– | – | 62.7% | 52.7% | CNC(CN)CCCCN1Cc2ccccc2C(CNC2CCCCC2)C1c1ccc(F)c(F)c1F (centres unmarked) [TRG 2405-186]
– | – | 66.9% | 60.1% | CNC(CN)CCCCN1Cc2ccccc2C(CNC2CCCCC2)C1c1cccc2c1OCO2 (centres unmarked) [TRG 2405-188]
– | – | 45% | 54.8% | CNC(CN)CCCCN1Cc2ccccc2C(CNC2CCCCC2)C1c1cccc(F)c1F (centres unmarked) [TRG 2405-189]
– | – | 41.2% | 47.3% | CNC(CN)CCCCN1Cc2ccccc2C(CNC2CCCCC2)C1c1c(F)cccc1F (centres unmarked) [TRG 2405-191]
– | – | 73.8% | 50.9% | CNC(CN)CCCCN1Cc2ccccc2C(CNC2CCCCC2)C1c1ccccc1Br (centres unmarked) [TRG 2405-192]

% Disp. MC-1 10 μM (first of duplicate) | % Disp. MC-1 10 μM (second of duplicate) | % Disp. of 125I-HP 467 (first of duplicate) | % Disp. of 125I-HP 467 (second of duplicate) | Compound
– | – | 50.7% | 51.4% | CNC(CN)CCCCN1Cc2ccccc2C(CNC2CCCCC2)C1c1c(F)cccc1Cl (centres unmarked) [TRG 2405-194]
– | – | 44.7% | 35.7% | CNC(CN)CCCCN1Cc2ccccc2C(CNC2CCCCC2)C1c1ccccc1CN (centres unmarked) [TRG 2405-195]
– | – | 69.1% | 64.6% | CNC(CN)CCCCN1Cc2ccccc2C(CNC2CCCCC2)C1c1ccccc1F (centres unmarked) [TRG 2405-196]
– | – | 41.9% | 41.3% | CNC(CN)CCCCN1Cc2ccccc2C(CNC2CCCCC2)C1c1ccco1 (centres unmarked) [TRG 2405-197]
– | – | 65.4% | 26.4% | CNC(CN)CCCCN1Cc2ccccc2C(CNC2CCCCC2)C1c1ncc[nH]1 (centres unmarked) [TRG 2405-198]
– | – | 71.5% | 71.4% | CNC(CN)CCCCN1Cc2ccccc2C(CNC2CCCCC2)C1c1ccccc1OC (centres unmarked) [TRG 2405-199]
– | – | 83.6% | 81% | CNC(CN)CCCCN1Cc2ccccc2C(CNC2CCCCC2)C1c1ccc2ccccc2c1 (centres unmarked) [TRG 2405-200]
– | – | 61.1% | 43.4% | CNC(CN)CCCCN1Cc2ccccc2C(CNC2CCCCC2)C1c1ccccn1 (centres unmarked) [TRG 2405-201]
– | – | 63% | 53.2% | CNC(CN)CCCCN1Cc2ccccc2C(CNC2CCCCC2)C1c1ccc2ccccc2n1 (centres unmarked) [TRG 2405-202]
– | – | 58.1% | 49% | CNC(CN)CCCCN1Cc2ccccc2C(CNC2CCCCC2)C1c1cccs1 (centres unmarked) [TRG 2405-203]
– | – | 75% | 69% | CNC(CN)CCCCN1Cc2ccccc2C(CNC2CCCCC2)C1c1ccc(Cl)c(Cl)c1 (centres unmarked) [TRG 2405-206]
– | – | 79.5% | 67.5% | CNC(CN)CCCCN1Cc2ccccc2C(CNC2CCCCC2)C1c1cc(C(F)(F)F)cc(C(F)(F)F)c1 (centres unmarked) [TRG 2405-208]
– | – | 76.5% | 69.6% | CNC(CN)CCCCN1Cc2ccccc2C(CNC2CCCCC2)C1c1cc(Cl)cc(Cl)c1 (centres unmarked) [TRG 2405-210]
– | – | 69.9% | 69% | CNC(CN)CCCCN1Cc2ccccc2C(CNC2CCCCC2)C1c1cc(OC)cc(OC)c1 (centres unmarked) [TRG 2405-211]
– | – | 54.8% | 45.8% | CNC(CN)CCCCN1Cc2ccccc2C(CNC2CCCCC2)C1c1cc(C)c(O)c(C)c1 (centres unmarked) [TRG 2405-212]
– | – | 87.5% | 84.9% | CNC(CN)CCCCN1Cc2ccccc2C(CNC2CCCCC2)C1c1cccc(Oc2ccc(OC)cc2)c1 (centres unmarked) [TRG 2405-214]
– | – | 75.9% | 70.8% | CNC(CN)CCCCN1Cc2ccccc2C(CNC2CCCCC2)C1c1cccc(C(F)(F)F)c1 (centres unmarked) [TRG 2405-215]
– | – | 78.9% | 67.9% | CNC(CN)CCCCN1Cc2ccccc2C(CNC2CCCCC2)C1c1ccc(F)c(Br)c1 (centres unmarked) [TRG 2405-216]
– | – | 74.5% | 68.8% | CNC(CN)CCCCN1Cc2ccccc2C(CNC2CCCCC2)C1c1cccc(Br)c1 (centres unmarked) [TRG 2405-217]
– | – | 43.5% | 42.9% | CNC(CN)CCCCN1Cc2ccccc2C(CNC2CCCCC2)C1c1cccc(CN)c1 (centres unmarked) [TRG 2405-219]
